Patent US20230041563A1, “N-(1,3,4-OXADIAZOL-2-YL)ARYLCARBOXAMIDES OR SALTS THEREOF, PREPARATION METHODS, HERBICIDAL COMPOSITIONS AND USES THEREOF” (priority 2018, published 2023)

How the values were obtained:
Test in all cases: Weeding effect in post-emergence stage (greenhouse pot spray)
Type in all cases: in vivo
Details in all cases: Table 2, dose 500 g a.i./ha
Abutilon theophrasti = system: Abutilon theophrasti
In short: (§1)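 Fresh-weight control rate was assessed 3 weeks after post-emergence spray-tower application at doses of 500–15 g a.i./ha, triplicate. Weeds were treated at the 2–3 leaf stage, 2 weeks post-sowing, using acetone solutions with Tween 80 plus 1.5 L/ha methyl oleate emulsifiable concentrate.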

Digitaria sanguinalis = system: Digitaria sanguinalis
In short: as §1

Echinochloa crusgalli = system: Echinochloa crusgalli
In short: as §1

Amaranthus retroflexus = system: Amaranthus retroflexus
Description: (§2) The activity level criteria for plant damage (i.e., growth control rate) are as follows:
(§3) The above growth control rates are fresh weight control rates.
(§4) Experiment on weeding effect in post-emergence stage: monocotyledonous and dicotyledonous weed seeds (Descurainia sophia, Capsella bursa-pastoris, Abutilon theophrasti, Galium aparine, Stellaria media, Lithospermum arvense, rorippa indica, Alopecurus aequalis, Beckmannia syzigachne, Sclerochloa dura, Phleum paniculatum, Bromus japonicus, Aegilops tauschii, Phalaris arundinacea, Amaranthus retroflexus, Chenopodiaceae, Commelina communis, Sonchus arvensis, convolvulus arvensis, Cirsium setosum, Solanum nigrum, Acalypha australis, Digitaria sanguinalis, Echinochloa crusgalli, Setaria viridis, Setaria glauca, Leptochloa chinensis, Monochoria vaginalis, Sagittaria trifolia, Scirpus juncoides, Cyperus rotundus, Cyperus iria, Cyperus difformis, Fimbristylis, Portulaca oleracea, Xanthium sibiricum, Pharbitis nil) and major crop seeds (wheat, corn, rice, soybean, cotton, oilseed rape, millet, sorghum, potato, sesame, ricinus) were placed in plastic pots filled with soil, then covered with 0.5-2 cm of soil, allowed to grow in a good greenhouse environment. After 2 weeks of sowing, the test plants were treated in the 2 to 3 leaf stage. The tested compounds of the present invention were respectively dissolved in acetone, then added with Tween 80 and 1.5 liter/ha of emulsifiable concentrate of methyl oleate as synergist, diluted with a certain amount of water to obtain a solution with a certain concentration, and sprayed with a spray tower onto the plants. After the application, the plants were cultured for 3 weeks in the greenhouse, and then the experimental results of the weeding were counted. The doses of the used compounds were 500, 250, 125, 60, 15 g a.i./ha, and the averages were obtained by repeating for three times.

Stellaria media = system: Stellaria media
Description: as §2, §3, §4

Structure (SMILES)	Abutilion theophrasti (activity level) (Abutilon theophrasti)	Digitaria sanguinalis (activity level) (Digitaria sanguinalis)	Echinochloa crusgah (activity level) (Echinochloa crusgalli)	Amaranthus retroflexus (activity level) (Amaranthus retroflexus)	Stellaria media (activity level) (Stellaria media)
CCC[S+]([O-])c1c(C(F)(F)F)ccc(C(=O)Nc2nnco2)c1F (centres unmarked) [Compound 3-8]	5 (Level 5: growth control rate is above 85%)	5 (Level 5: growth control rate is above 85%)	5 (Level 5: growth control rate is above 85%)	5 (Level 5: growth control rate is above 85%)	5 (Level 5: growth control rate is above 85%)
Cc1nnc(NC(=O)c2ccc(C(F)(F)F)c([S+]([O-])C(C)(C)C)c2F)o1 (centres unmarked) [Compound 1-137]	5 (Level 5: growth control rate is above 85%)	5 (Level 5: growth control rate is above 85%)	5 (Level 5: growth control rate is above 85%)	5 (Level 5: growth control rate is above 85%)	5 (Level 5: growth control rate is above 85%)
O=C(Nc1nnco1)c1ccc(C(F)(F)F)c([S+]([O-])CCC(F)(F)F)c1F (centres unmarked) [Compound 3-52]	5 (Level 5: growth control rate is above 85%)	5 (Level 5: growth control rate is above 85%)	5 (Level 5: growth control rate is above 85%)	5 (Level 5: growth control rate is above 85%)	5 (Level 5: growth control rate is above 85%)
COCCC[S+]([O-])c1c(C(F)(F)F)ccc(C(=O)Nc2nnc(C)o2)c1F (centres unmarked) [Compound 1-448]	5 (Level 5: growth control rate is above 85%)	5 (Level 5: growth control rate is above 85%)	5 (Level 5: growth control rate is above 85%)	5 (Level 5: growth control rate is above 85%)	5 (Level 5: growth control rate is above 85%)
